≈ marks a conversion by molar mass, not a printed value.
Assay: Solubility of DXM in the 6:1 (v/v) DCM to THF spin dope co-solvent
Type: physicochemical
Settings: 6:1 (v/v) DCM to THF co-solvent (spin dope), organic solvent or mixture; 6:1 (v/v) DCM to THF with PLLA; read-out: maximum solubility in co-solvent solution
Method: PLLA (7.5% w/v), DXM-loaded (1.0%, 2.4%, 4.8% w/w) and unloaded (0% w/w) microfibers were wet spun by phase inversion. PLLA (526.9±0.3 mg) was dissolved in a co-solvent ratio of 6:1 (v/v) DCM to THF. […] The addition of THF was necessary to increase DXM solubility within the spin dope. The polymer/drug solution was loaded into a 5 mL syringe fitted with a 22-gauge spinneret and placed in a syringe pump with a solution flow rate of 0.06 mL/min. […] A rotating mandrel placed above the spin bath was used to collect microfibers for further analysis. Each formulation in Examples herein was characterized from multiple regions of meter-long microfiber bundles spun at the same time from one spin dope solution.

C[C@@H]1C[C@H]2[C@@H]3CCC4=CC(=O)C=C[C@]4(C)[C@@]3(F)[C@@H](O)C[C@]2(C)[C@@]1(O)C(=O)CO [DXM, Dexamethasone]
solubility: ~3600 µg/mL (≈ 9.17 mM)

From patent US9238011B2, “Compositions, methods and kits for therapeutic treatment with wet spun microstructures” (Brown University, priority 2012, dated 2016)
